Source: EPA's ToxRefDB 2

Experiments:
rat [1] = conditions: Prenatal developmental toxicity study, wistar, Oral, Gavage/Intubation, dose end: 15 GD
mouse [2] = conditions: Chronic toxicity; b6c3f1; Inhalation; Whole-Body; dose end: 78 week; group: systemic; systemic / in life observation / body weight / body weight gain + systemic / pathology microscopic / nose / hyperplasia
rat [3] = conditions: Multigenerational reproductive toxicity study, wistar, Oral, Water, dose end: 2 generation
rabbit = conditions: Prenatal developmental toxicity study, himalayan, Oral, Gavage/Intubation, dose end: 19 GD
rat [4] = conditions: Subchronic inhalation toxicity, fischer, Whole-Body, dose end: 13 week, group: systemic
mouse [5] = conditions: Subchronic oral toxicity in rodents, cd1, Water, dose end: 90 day, group: systemic, systemic / pathology microscopic / stomach / inflammation + systemic / urinalysis / specific gravity/osmolality / specific gravity/…
rat [6] = conditions: Chronic toxicity, wistar, Oral, Water, dose end: 12 month, group: systemic
rat [7] = conditions: Multigenerational reproductive toxicity study, sprague dawley, Oral, Water, dose end: 2 generation
mouse [8] = conditions: Subchronic inhalation toxicity, b6c3f1, Whole-Body, dose end: 13 week
dog = conditions: Subchronic oral toxicity in nonrodent, beagle, Water, dose end: 90 day, group: systemic, systemic / in life observation / clinical signs / vomitting
rat [9] = conditions: Carcinogenicity, wistar, Oral, Water, dose end: 24 month, group: systemic
rat [10] = conditions: Multigenerational reproductive toxicity study, sprague dawley, Oral, Water, dose end: 2 generation; remark: listed apart in the source
rat [11] = conditions: Combined chronic toxicity/carcinogenicity, fischer, Oral, Water, dose end: 104 week, group: systemic
rat [12] = conditions: Subchronic dermal toxicity, sprague dawley, Topical, dose end: 90 day, group: systemic, systemic / pathology gross / skin / scabbing + systemic / pathology microscopic / skin / acanthosis + systemic / pathology microscopic / …
mouse [13] = conditions: Subchronic oral toxicity in rodents, b6c3f1, Water, dose end: 3 month, group: systemic
rat [14] = conditions: Combined chronic toxicity/carcinogenicity, fischer, Oral, Water, dose end: 105 week, group: systemic
mouse [15] = conditions: Combined chronic toxicity/carcinogenicity, b6c3f1, Oral, Water, dose end: 105 week, group: systemic
rat [16] = conditions: Subchronic oral toxicity in rodents, fischer, Water, dose end: 3 month, group: systemic, systemic / clinical chemistry / alanine aminotransferase (alt/sgpt) / alanine aminotransferase (alt/sgpt) + systemic / clinical chemistry / …
[17] = group: developmental, systemic / in life observation / body weight / fetal weight
[18] = group: maternal, systemic / in life observation / body weight / body weight gain + systemic / in life observation / clinical signs / piloerection + systemic…
[19] = group: maternal, systemic / in life observation / clinical signs / piloerection
[20] = group: offspring, systemic / in life observation / body weight / litter weight + systemic / in life observation / body weight / offspring (pup) weight
[21] = group: parental, systemic / in life observation / body weight / body weight + systemic / in life observation / body weight / body weight gain + systemic / in…
[22] = group: parental, systemic / in life observation / water consumption / water consumption
[23] = group: maternal, systemic / in life observation / body weight / body weight + systemic / in life observation / body weight / body weight gain + systemic / in…
[24] = systemic / pathology microscopic / nose / [other] + systemic / pathology microscopic / nose / hyperplasia + systemic / pathology microscopic…
[25] = systemic / in life observation / body weight / body weight gain + systemic / pathology gross / stomach / erosion + systemic / pathology …
[26] = group: offspring, systemic / in life observation / body weight / offspring (pup) weight gain
[27] = group: developmental, developmental / developmental malformation / penis / paraphimosis
[28] = group: maternal, reproductive / reproductive performance / estrous cycle / abnormal
[29] = group: systemic, systemic / pathology microscopic / nose / inflammation
[30] = group: systemic, systemic / pathology microscopic / nose / inflammation + systemic / in life observation / body weight / body weight gain
[31] = systemic / in life observation / water consumption / water consumption
[32] = group: offspring, systemic / in life observation / body weight / offspring (pup) weight
[33] = group: parental, systemic / in life observation / food consumption / food consumption
[34] = group: parental, systemic / in life observation / food consumption / food consumption + systemic / pathology gross / lymph node / enlarged + systemic / …
[35] = systemic / organ weight / kidney / relative to body weight + systemic / in life observation / clinical signs / urine staining - perineum + …
[36] = systemic / organ weight / kidney / relative to body weight + systemic / pathology gross / stomach / [other] + systemic / clinical chemistry…
[37] = systemic / hematology / erythrocyte (rbc) count differential / erythrocyte (rbc) + systemic / hematology / hemoglobin (hgb) / hemoglobin (…
[38] = systemic / hematology / mean corpuscular hemoglobin (mch) / mean corpuscular hemoglobin (mch) + systemic / pathology microscopic / intestine…
[39] = systemic / pathology microscopic / liver / inflammation
[40] = systemic / pathology microscopic / oral mucosa / squamous cell carcinoma + systemic / clinical chemistry / alanine aminotransferase (alt/…
[41] = systemic / pathology microscopic / intestine small / adenoma + systemic / pathology microscopic / intestine small / carcinoma + systemic / …
[42] = systemic / pathology microscopic / intestine small / hyperplasia + systemic / pathology microscopic / lymph node / infiltration cellular + …

For `O=CCCCC=O` [Glutaraldehyde], the LEL (rat [1]; [17]) was 100 mg/kg/day, the LOAEL (rat [1]; [17]) was > 100 mg/kg/day and the NEL (rat [1]; [17]) was 50 mg/kg/day. The NOAEL (rat [1]; [17]) was ≥ 100 mg/kg/day, the LOAEL (rat [1]; [18]) was > 100 mg/kg/day and the NOAEL (rat [1]; [18]) was ≥ 100 mg/kg/day. The LEL (rat [1]; [19]) was 25 mg/kg/day, the NEL (rat [1]; [19]) was < 25 mg/kg/day and the LEL (mouse [2]) was 0.1 ppm. For the same compound, the LOAEL (mouse [2]) was > 0.1 ppm, the NEL (mouse [2]) was < 0.1 ppm and the NOAEL (mouse [2]) was ≥ 0.1 ppm. The LEL (rat [3]; [20]) was 76 mg/kg/day, the LOAEL (rat [3]; [20]) was 76 mg/kg/day and the NEL (rat [3]; [20]) was 22.4 mg/kg/day. The NOAEL (rat [3]; [20]) was 22.4 mg/kg/day, the LOAEL (rat [3]; [21]) was 76 mg/kg/day and the NOAEL (rat [3]; [21]) was 22.4 mg/kg/day. The LEL (rat [3]; [22]) was 22.4 mg/kg/day, the NEL (rat [3]; [22]) was 4.7 mg/kg/day and the LEL (rabbit; [17]) was 45 mg/kg/day. For the same compound, the LOAEL (rabbit; [17]) was 45 mg/kg/day, the NEL (rabbit; [17]) was 15 mg/kg/day and the NOAEL (rabbit; [17]) was 15 mg/kg/day. It also gave an LEL (rabbit; [23]) of 45 mg/kg/day, an LOAEL (rabbit; [23]) of 45 mg/kg/day and an NEL (rabbit; [23]) of 15 mg/kg/day. The NOAEL (rabbit; [23]) was 15 mg/kg/day, the LEL (rat [4]; systemic / hematology / neutrophils / neutrophils) was 0.125 ppm and the NEL (rat [4]; systemic / hematology / neutrophils / neutrophils + systemic / clinical chemistry / alanine aminotransferase (alt/sgpt) / alanine …) was 0.0625 ppm. The LOAEL (rat [4]; [24]) was 0.25 ppm, the NOAEL (rat [4]; [24]) was 0.125 ppm and the LEL (mouse [5]) was 200 mg/kg/day. It also gave an LOAEL (mouse [5]) of 200 mg/kg/day, an NEL (mouse [5]) of 60.8 mg/kg/day and an NOAEL (mouse [5]) of 60.8 mg/kg/day. The LOAEL (rat [6]; [25]) was 58.9 mg/kg/day, the NOAEL (rat [6]; [25]) was 15.4 mg/kg/day and the LEL (rat [6]; systemic / pathology gross / pituitary gland / enlarged) was 23.2 mg/kg/day. For the same compound, the NEL (rat [6]; systemic / pathology gross / pituitary gland / enlarged + systemic / in life observation / clinical signs / abnormal respiratory sounds + …) was 4.8 mg/kg/day, the LEL (rat [7]; [26]) was 98.4 mg/kg/day and the LOAEL (rat [7]; [26]) was 98.4 mg/kg/day. For the same compound, the NEL (rat [7]; [26]) was 28.3 mg/kg/day, the NOAEL (rat [7]; [26]) was 28.3 mg/kg/day and the LEL (rat [7]; [22]) was 19.5 mg/kg/day. The LOAEL (rat [7]; [22]) was > 69.1 mg/kg/day, the NEL (rat [7]; [22]) was 4.25 mg/kg/day and the NOAEL (rat [7]; [22]) was ≥ 69.1 mg/kg/day. For the same compound, the LEL (mouse [8]; [27]) was 1 ppm, the LOAEL (mouse [8]; [27]) was > 1 ppm and the NEL (mouse [8]; [27]) was 0.5 ppm. For the same compound, the NOAEL (mouse [8]; [27]) was ≥ 1 ppm, the LEL (mouse [8]; [28]) was 0.5 ppm and the LOAEL (mouse [8]; [28]) was > 1 ppm. For the same compound, the NEL (mouse [8]; [28]) was 0.25 ppm, the NOAEL (mouse [8]; [28]) was ≥ 1 ppm and the LOAEL (mouse [8]; [29]) was 0.0625 ppm. For the same compound, the NOAEL (mouse [8]; [29]) was < 0.0625 ppm, the LEL (mouse [8]; [30]) was 0.0625 ppm and the NEL (mouse [8]; [30]) was < 0.0625 ppm. It also gave an LEL (dog) of 14.6 mg/kg/day, an LOAEL (dog) of 14.6 mg/kg/day and an NEL (dog) of 9.8 mg/kg/day. The NOAEL (dog) was 9.8 mg/kg/day, the LEL (rat [9]; [31]) was 5.3 mg/kg/day and the NEL (rat [9]; [31]) was < 5.3 mg/kg/day. It also gave an LOAEL (rat [9]; systemic / pathology microscopic / larynx / metaplasia) of 61 mg/kg/day, an NOAEL (rat [9]; systemic / pathology microscopic / larynx / metaplasia + systemic / in life observation / body weight / body weight + systemic / in life …) of 16.1 mg/kg/day and an LEL (rat [10]; [32]) of 71.1 mg/kg/day. The LOAEL (rat [10]; [32]) was 71.1 mg/kg/day, the NEL (rat [10]; [32]) was 20.9 mg/kg/day and the NOAEL (rat [10]; [32]) was 20.9 mg/kg/day. The LEL (rat [10]; [33]) was 19.5 mg/kg/day, the LOAEL (rat [10]; [33]) was 19.5 mg/kg/day and the NEL (rat [10]; [34]) was 4.25 mg/kg/day. The NOAEL (rat [10]; [34]) was 4.25 mg/kg/day, the LEL (rat [11]; [35]) was 4 mg/kg/day and the NEL (rat [11]; [35]) was < 4 mg/kg/day. The LOAEL (rat [11]; [36]) was > 64 mg/kg/day, the NOAEL (rat [11]; [36]) was ≥ 64 mg/kg/day and the LEL (rat [12]) was 50 mg/kg/day. The LOAEL (rat [12]) was 50 mg/kg/day, the NEL (rat [12]) was < 50 mg/kg/day and the NOAEL (rat [12]) was < 50 mg/kg/day.
`O.O.[Na+].[Na+].[O]=[Cr](=[O])([O-])[O][Cr](=[O])(=[O])[O-]` [Sodium dichromate(VI) dihydrate] was tested, and the LOAEL (mouse [13]; [37]) was > 80 mg/kg/day, the NOAEL (mouse [13]; [37]) was ≥ 80 mg/kg/day and the LEL (mouse [13]; [38]) was 9 mg/kg/day. The NEL (mouse [13]; [38]) was < 9 mg/kg/day, the LEL (rat [14]; [39]) was 0.7 mg/kg/day and the NEL (rat [14]; [39]) was < 0.7 mg/kg/day. The LOAEL (rat [14]; [40]) was > 17 mg/kg/day, the NOAEL (rat [14]; [40]) was ≥ 17 mg/kg/day and the LOAEL (mouse [15]; [41]) was > 17 mg/kg/day. For the same compound, the NOAEL (mouse [15]; [41]) was ≥ 17 mg/kg/day, the LEL (mouse [15]; [42]) was 1.1 mg/kg/day and the NEL (mouse [15]; [42]) was < 1.1 mg/kg/day. For the same compound, the LEL (rat [16]) was 5 mg/kg/day, the LOAEL (rat [16]) was > 60 mg/kg/day and the NEL (rat [16]) was < 5 mg/kg/day. For the same compound, the NOAEL (rat [16]) was ≥ 60 mg/kg/day.
